For 17 compounds, ED50 and LD50 results are on record in patent US4766133A, “(Bezimidazol-2-yl)-pyridinium compounds” (priority 1985, dated 1988).

A word on the ED50: it is the dose that gives a 50% effect, or the effect in half of the subjects.

In data set [1] the test system is indomethacin-induced lesions of the stomach. Put plainly: anti-ulcer activity (indomethacin-induced lesions of the stomach). The note with it: Rattus norvegicus, po, read-out: Anti-ulcer, ED50. In kind it is in vivo. As to the method: The experimental procedure described hereinafter was used to determine the anti-ulcer activity:
Groups each comprising 8 male rats with a body weight of 130-150 g are used for each dosage of a test substance. Before the beginning of the experiment the animals receive no food for 24 hours, but receive water ad libitum. Various dosages of the substances to be tested (suspended in 0.5% tragacanth) or the vehicle alone (controls) are administered twice perorally, namely 1 hour before and 2 hours after the peroral administration of 20 mg/kg of indomethacin. […] The animals are killed 6 hours after the first administration of the substanoe under investigation (or of the vehicle alone). The rats which remain protected from the occurrence of macroscopically visible lesions to the mucous membrane of the stomach are counted.

The test system of data set [2] is gastric acid secretion stimulated by 4-methylhistamine. Description: gastric acid secretion-inhibiting activity (Heidenhain type pouch, 4-methylhistamine stimulated). The note with it: Canis lupus familiaris, read-out: Gastric acid secretion-inhibition, ED50. In kind it is in vivo, beagle hounds (dog). As to the method: The experimental procedure described hereinafter was used to determine the gastric acid secretion-inhibiting activity:
In the pouch there is fitted a steel cannula which is conducted externally through the abdominal wall. Before each experiment the animals receive no food for 18 hours, but receive water ad libitum. They are conscious and standing during the experiment and their gastric acid secretion is stimulated by the intravenous infusion of 4-methylhistamine, a selective agonist of the histamine H2 -receptors. The gastric acid production is determined in 15 minute fractions of the stomach pouch juioe. As soon as the gastric acid production has a constant value, the substances to be tested are administered orally as a dry powder filled into gelatine capsules.

Data set [3] can be described thus: acute toxicity (single oral administration to mice). The note with it: mouse, in vivo, read-out: Toxicity, LD 50. The text has this:
In the following Table there are given for a series of representative compounds of formula I the results of the testing with respect to their anti-ulcer activity and to their gastric secretion-inhibiting activity. Moreover, this Table contains data concerning the acute toxicity (LD50 in the case of single oral administration to mice).

The mark [4] stands for this setting: male rats, p.o. twice, 1 h before and 2 h after 20 mg/kg indomethacin p.o., 50% of animals protected from lesions.
[5] abbreviates: conscious beagle hounds, Heidenhain type pouch, 4-methylhistamine i.v. infusion, oral dry powder in gelatine capsules, 50% inhibition.

Like-named read-outs stand apart in the source and are kept apart here. A value given as a limit tells only on which side of the number the result lay.

Take `CCSSCc1c(C)c(OC)cc[n+]1-c1nc2ccc(C(F)(F)F)cc2[nH]1.[Cl-]` [F, 2-[(Ethyldithio)methyl]-4-methoxy-3-methyl-1-[5-(trifluoromethyl)-2-benzimidazolyl]pyridinium chloride]: the 50% effective dose (ED50) was 1.7 mg/kg in data set [1] (setting [4]) and 1.6 mg/kg in data set [2] (setting [5]). For the same compound, the LD50 in data set [3] was in the range of 1250 to 2500 mg/kg.
For `COc1cc[n+](-c2nc3cc(C(F)(F)F)ccc3[nH]2)c(CSSCCN)c1C` [G, 2-[[(2-Aminoethyl)dithio]methyl]-4-methoxy-3-methyl-b 1-[5-(trifluoromethyl)-2-benzimidazolyl]pyridinium chloride], in that order: 2.3 mg/kg, 1.5 mg/kg and 312 to 625 mg/kg.
On the same counts, the results for `COc1cc[n+](-c2nc3ccc(C(F)(F)F)cc3[nH]2)c(CSSc2ccccc2Cl)c1C.[Cl-]` [E, 2-[[(o-Chlorophenyl)dithio]methyl]-4-methoxy-3-methyl-1-[5-(trifluoromethyl)-2-benzimidazolyl]pyridinium chloride] are 2.1 mg/kg, 6 mg/kg and over 5000 mg/kg.
On the same counts, the results for `CCCCCCSSCc1c(C)c(OC)cc[n+]1-c1nc2ccc(C(F)(F)F)cc2[nH]1.[Cl-]` [D, 2-[(Hexyldithio)methyl]-4-methoxy-3-methyl-1-[5-(trifluoromethyl) -2-benzimidazolyl]pyridinium chloride] are 1.9 mg/kg, 6.8 mg/kg and over 5000 mg/kg.
Consider `COc1cc[n+](-c2nc3cc4c(cc3[nH]2)C(C)(C)C(=O)C4(C)C)c(CSSC[C@H](N)C(=O)O)c1C.[Cl-]` [I, 2-[[[(R)-2-Amino-2-carboxyethyl]dithio]methyl]-4-methoxy-3-methyl-1-(1,5,6,7-tetrahydro-5,5,7,7-tetramethyl-6-oxoindeno[5,6-d]imidazol-2-yl)pyridinium chloride], for which the figures for the ED50 in data set [1] (setting [4]) and in data set [2] (setting [5]) were 2.3 mg/kg and 3.9 mg/kg, respectively. Moreover, the LD50 in data set [3] is 312 to 625 mg/kg.
For `CCCSSCc1c(C)c(OC)cc[n+]1-c1nc2cc3c(cc2[nH]1)C(C)(C)C(=O)C3(C)C.[Cl-]` [L, 4-Methoxy-3-methyl-2-[(propyldithio)methyl]-1-(1,5,6,7-tetrahydro-5,5,7,7-tetramethyl-6-oxoindeno[5,6-d]-imidazol-2-yl)pyridinium chloride], in that order: 1.6 mg/kg, 3.4 mg/kg and 312 to 625 mg/kg.
For `COc1cc[n+](-c2nc3cc4c(cc3[nH]2)C(C)(C)C(=O)C4(C)C)c(CSSc2cccc(Cl)c2)c1C` [H, 2-[[(m-Chlorophenyl)dithio]methyl]-4-methoxy-3-methyl-1-(1,5,6,7-tetrahydro-5,5,7,7-tetramethyl-6-oxoindeno[5,6d]imidazol-2-yl)pyridinium chloride], in that order: 1.8 mg/kg, 6.2 mg/kg and 1250 to 2500 mg/kg.
On to `COc1cc[n+](-c2nc3cc4c(cc3[nH]2)C(C)(C)C(=O)C4(C)C)c(CSSC2CCCC2)c1C.[Cl-]` [Q, 2-[(Cyclopentyldithio)methyl]-4-methoxy-3-methyl-1-(1,5,6,7-tetrahydro-5,5,7,7-tetramethyl-6-oxoindeno[5,6-d]imidazol-2-yl)pyridinium chloride], for which the ED50 was found to be 1.6 mg/kg in data set [1] (setting [4]) and 4.9 mg/kg in data set [2] (setting [5]). Besides, the LD50 in data set [3] was 312 to 625 mg/kg.
On the same counts, the results for `CCCSSCc1c(C)c(OC)cc[n+]1-c1nc2ccc(C(F)(F)F)cc2[nH]1.[Cl-]` [A, 2-[(propyldithio)methyl]-4-methoxy-3-methyl-1-[5-(trifluoromethyl)-2-benzimidazolyl]pyridinium chloride] are 1.2 mg/kg, 1.5 mg/kg and over 5000 mg/kg.
On to `COc1cc[n+](-c2nc3cc4c(cc3[n-]2)C(C)(C)C(=O)C4(C)C)c(CSSCCN(C)C)c1C` [N], for which the figures for the ED50 in data set [1] and in data set [2] (po) were 1.5 mg/kg and 3.7 mg/kg, respectively.
For `CCOC(=O)CC(SSCc1c(C)c(OC)cc[n+]1-c1nc2ccc(C(F)(F)F)cc2[nH]1)C(=O)OCC.[Cl-]` (centres unmarked) [J, 2-[[[1,2-Bis-(ethoxycarbonyl)ethyl]dithio]methyl]-4-methoxy-3-methyl-1-[5-(trifluoromethyl)-2-benzimidazolyl]pyridinium chloride], the 50% effective dose (ED50) in data set [1] (setting [4]) stood at 2.4 mg/kg; in data set [2] (setting [5]), 2.2 mg/kg. The LD50 in data set [3] is 1250 to 2500 mg/kg.
Take `COc1cc[n+](-c2nc3cc4c(cc3[nH]2)C(C)(C)C(=O)C4(C)C)c(CSSCCO)c1C.[Cl-]` [O, 2-[[(2-Hydroxyethyl)dithio]methyl]-4-methoxy-3-methyl-1-(1,5,6,7-tetrahydro-5,5,7,7-tetramethyl-6-oxoindeno[5,6-d]imidazol-2-yl)pyridinium chloride]: the results for the 50% effective dose (ED50) in data set [1] (setting [4]) and in data set [2] (setting [5]) were 2.3 mg/kg and 2.9 mg/kg, respectively. Further, the LD50 in data set [3] lay within 312 to 625 mg/kg.
For `COc1cc[n+](-c2nc3cc4c(cc3[nH]2)C(C)(C)C(=O)C4(C)C)c(CSSCCC(N)C(=O)O)c1C.[Cl-]` (racemic) [P, 2-[[[(RS)-3-Amino-3-carboxypropyl]dithio]methyl]-4-methoxy-3-methyl-1-(1,5,6,7-tetrahydro-5,5,7,7-tetramethyl-6-oxoindeno[5,6-d]imidazol-2-yl)pyridinium chloride], in that order: 1.9 mg/kg, 4.1 mg/kg and 312 to 625 mg/kg.
On the same counts, the results for `CCSSCc1c(C)c(OC)cc[n+]1-c1nc2cc3c(cc2[nH]1)C(C)(C)C(=O)C3(C)C.[Cl-]` [K, 2-[(Ethyldithio)methyl]-4-methoxy-3-methyl-1-(1,5,6,7-tetrahydro-5,5,7,7-tetramethyl-6-oxoindeno[5,6-d]-imidazol-2-yl)pyridinium chloride] are 2.3 mg/kg, 6.5 mg/kg and 312 to 625 mg/kg.
On the same counts, the results for `CCOC(=O)[C@@H](N)CSSCc1c(C)c(OC)cc[n+]1-c1nc2cc3c(cc2[nH]1)C(C)(C)C(=O)C3(C)C.[Cl-]` [M, 2-[[[(R)-2-Amino-2-(ethoxycarbonyl)ethyl]dithio]methyl]-4-methoxy-3-methyl-1-(1,5,6,7-tetrahydro-5,5,7,7-tetramethyl-6-oxoindeno[5,6-d]imidazol-2-yl)pyridinium chloride] are 1.6 mg/kg, 4.6 mg/kg and 312 to 625 mg/kg.
With `COc1cc[n+](-c2nc3cc(C(F)(F)F)ccc3[nH]2)c(CSSC[C@H](NC(=O)CC[C@H](N)C(=O)O)C(=O)NCC(=O)O)c1C` [C, 2-[[[(R)-2-[(S)-4-Amino-4-carboxybutyramido]-2-[(carboxymethyl)carbamoyl]ethyl]dithio]methyl]-4-methoxy-3-methyl-1-[(5-trifluoromethyl)-2-benzimidazolyl]pyridinium chloride], the ED50 in data set [1] (setting [4]) and in data set [2] (setting [5]) was 3 mg/kg throughout. The LD50 in data set [3] was in the range of 1250 to 2500 mg/kg.
Turning to `COc1cc[n+](-c2nc3ccc(C(F)(F)F)cc3[nH]2)c(CSSC[C@H](N)C(=O)O)c1C.[Cl-]` [B, 2-[[[(R)-2-Amino-2-carboxyethyl]dithio]methyl]-4-methoxy-3-methyl-1-[5-(trifluoromethyl)-2-benzimidazolyl]pyridinium chloride], the ED50 in data set [1] (setting [4]) stood at 2.5 mg/kg; in data set [2] (setting [5]) it was 2.8 mg/kg. The LD50 in data set [3] lay within 1250 to 2500 mg/kg.
